Laboratory results as given in patent US20140179681A1, “METHODS AND COMPOSITIONS OF TARGETED DRUG DEVELOPMENT” (priority 2010, published 2014).

Tests used:
EGFR = target: T1, EGFR (Homo sapiens, UniProt P00533); experiment: EGFR in-cell Western (ICW) screening protocol (EGFR inhibition assay); format: cell-based; details: % Inhibition of EGF dependent EGFR phosphorylation in A431 cells, compound 125 μM in assay
T1 construct: host or cells: A431
Procedure, shortened: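 In-cell Western read-out: fixed A431 cells were co-stained for total EGFR and phospho-EGFR (Tyr1173; some runs Tyr1045). Before fixation, cells were serum-starved for 2 h, exposed to compound for 4 h, then given EGF for 10 min, usually at 10 ng/ml final (6.6 or 12.5 ng/ml in some runs).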

EGF binding site = target: T2, EGF binding site (Rattus norvegicus, UniProt G3V6K6); experiment: Inhibition of [125I]EGF binding (EGF inhibitor assay, NovaScreen); details: determined at 25 μM; rat liver membranes; result in words
T2 construct: Receptor source was rat liver membranes; tissue NovaScreen BioSciences; host or cells: rat liver membranes
Method: Identified compounds, representing various pharmacophore models, were tested for ability to inhibit EGFR at 25 μM.
AD4-compounds were identified using pharmacophore models (see Example 3, Example 4) and then were docked with the binding site of EGFR (SEQ ID NO: 1) that is recognized by defined CDRs of cetuximab. The inhibition of epidermal growth factor binding by AD4-compounds was then determined (NovaScreen BioSciences, Hanover, Md.). Inhibition of EGF binding was determined at 25 μM concentration.
Receptor source was rat liver membranes. The radioligand was [^125I]EGF ([…]) at a final ligand concentration of 0.36 nM. A non-specific determinant was used as EGF—[100 nM]. The reference compound and positive control was EGF. Reactions were carried out in 10 mM HEPES (pH 7.4) containing 0.1% BSA at 25° C. for 60 minutes. The reaction was terminated by rapid vacuum filtration onto glass fiber filters. Radioactivity trapped onto the filters was determined and compared to control values to ascertain any interactions of test compounds with the EGF binding site. The EGF inhibitor assays were modified from, for example, Mukku (1984) J. Biol. Chem. 259, 6543-6546; Duh et al. (1990) World J. Surgery 14, 410-418; Lokeshwar et al. (1989) J. Biol. Chem. 264(32), 19318-19326.

T2 sequence (G3V6K6 25-1209): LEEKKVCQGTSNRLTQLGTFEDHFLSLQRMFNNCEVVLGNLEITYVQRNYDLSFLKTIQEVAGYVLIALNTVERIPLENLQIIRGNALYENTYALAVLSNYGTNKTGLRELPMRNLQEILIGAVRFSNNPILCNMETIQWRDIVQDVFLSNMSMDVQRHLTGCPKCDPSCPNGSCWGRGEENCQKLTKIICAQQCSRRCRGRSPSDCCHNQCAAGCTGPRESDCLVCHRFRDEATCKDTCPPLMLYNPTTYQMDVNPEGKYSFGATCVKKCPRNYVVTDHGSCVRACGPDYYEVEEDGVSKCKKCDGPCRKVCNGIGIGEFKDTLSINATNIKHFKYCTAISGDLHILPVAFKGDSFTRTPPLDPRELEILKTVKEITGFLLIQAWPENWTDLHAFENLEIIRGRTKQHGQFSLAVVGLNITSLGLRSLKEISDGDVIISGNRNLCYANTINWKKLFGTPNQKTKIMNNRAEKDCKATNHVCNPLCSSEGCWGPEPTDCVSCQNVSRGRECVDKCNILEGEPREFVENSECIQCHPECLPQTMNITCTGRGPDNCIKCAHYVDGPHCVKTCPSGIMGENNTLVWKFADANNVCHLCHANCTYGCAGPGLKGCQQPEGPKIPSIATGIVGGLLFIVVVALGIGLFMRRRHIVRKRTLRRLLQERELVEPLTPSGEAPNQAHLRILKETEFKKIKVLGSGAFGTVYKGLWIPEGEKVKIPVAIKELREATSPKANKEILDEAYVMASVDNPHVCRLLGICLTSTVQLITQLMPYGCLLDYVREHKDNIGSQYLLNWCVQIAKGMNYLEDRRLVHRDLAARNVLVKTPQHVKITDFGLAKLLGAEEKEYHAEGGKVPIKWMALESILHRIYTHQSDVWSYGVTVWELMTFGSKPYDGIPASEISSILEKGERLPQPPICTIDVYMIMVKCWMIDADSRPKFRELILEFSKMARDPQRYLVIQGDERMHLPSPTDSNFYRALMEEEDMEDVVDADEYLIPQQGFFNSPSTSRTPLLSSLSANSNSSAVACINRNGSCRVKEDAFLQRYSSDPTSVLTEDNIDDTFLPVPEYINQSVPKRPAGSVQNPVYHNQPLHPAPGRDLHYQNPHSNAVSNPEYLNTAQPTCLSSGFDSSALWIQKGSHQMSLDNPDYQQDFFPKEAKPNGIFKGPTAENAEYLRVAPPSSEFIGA
T1 sequence (P00533 25-1210): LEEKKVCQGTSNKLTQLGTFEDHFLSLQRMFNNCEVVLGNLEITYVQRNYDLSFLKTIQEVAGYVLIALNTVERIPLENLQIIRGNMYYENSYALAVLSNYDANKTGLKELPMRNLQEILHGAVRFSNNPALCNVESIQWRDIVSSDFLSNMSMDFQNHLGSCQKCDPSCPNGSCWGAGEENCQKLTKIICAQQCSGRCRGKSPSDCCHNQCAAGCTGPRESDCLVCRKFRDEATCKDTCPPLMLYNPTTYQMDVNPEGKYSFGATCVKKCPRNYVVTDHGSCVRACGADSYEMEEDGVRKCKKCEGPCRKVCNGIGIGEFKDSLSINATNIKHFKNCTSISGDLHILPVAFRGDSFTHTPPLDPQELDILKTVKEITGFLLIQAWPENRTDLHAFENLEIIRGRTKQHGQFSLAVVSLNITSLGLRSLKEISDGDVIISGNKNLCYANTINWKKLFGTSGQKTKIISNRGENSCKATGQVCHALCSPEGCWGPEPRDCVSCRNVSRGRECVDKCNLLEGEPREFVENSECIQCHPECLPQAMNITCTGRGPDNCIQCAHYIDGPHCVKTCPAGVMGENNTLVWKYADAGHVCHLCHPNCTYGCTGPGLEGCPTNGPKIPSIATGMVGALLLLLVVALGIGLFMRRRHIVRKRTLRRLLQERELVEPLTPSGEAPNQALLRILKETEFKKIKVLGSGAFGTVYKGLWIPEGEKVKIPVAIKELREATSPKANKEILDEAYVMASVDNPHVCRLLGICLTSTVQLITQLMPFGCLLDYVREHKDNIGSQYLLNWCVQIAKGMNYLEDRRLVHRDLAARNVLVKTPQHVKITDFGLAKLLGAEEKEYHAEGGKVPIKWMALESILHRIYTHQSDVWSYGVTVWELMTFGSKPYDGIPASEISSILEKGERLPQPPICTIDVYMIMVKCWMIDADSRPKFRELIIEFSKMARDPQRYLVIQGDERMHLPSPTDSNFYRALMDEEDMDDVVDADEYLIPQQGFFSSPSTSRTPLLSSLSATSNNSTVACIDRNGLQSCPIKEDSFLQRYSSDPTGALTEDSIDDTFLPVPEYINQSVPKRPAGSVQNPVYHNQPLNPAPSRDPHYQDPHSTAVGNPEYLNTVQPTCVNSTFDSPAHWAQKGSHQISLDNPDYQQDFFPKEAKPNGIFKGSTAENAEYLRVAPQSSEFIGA

SMILES | ICW Screen (EGFR; Table 11) | inhibition of epidermal growth factor binding to its receptor (EGF binding site) | ICW assay (EGFR; Table 10)
CCc1cc2c(CN3CCN(Cc4ccc5c(c4)OCO5)CC3)cc(=O)oc2cc1O [AD4-1734] | 65.9 | inhibitor of epidermal growth factor binding to its receptor | –
Cc1cc(C)cc(NS(=O)(=O)c2ccc(NC(=S)Nc3ccccc3)cc2)c1 [AD4-11091] | – | inhibitor of epidermal growth factor binding to its receptor | 112.858
